Values after ≈ are worked out from the molar mass of the structure shown. Where two headings read alike, the source gives them in different places. Marks after values point to notes of the source that are not given here. Where only a bound is given, the exact number is not on record here.

One may read the solubility as how much of the substance goes into solution per volume.

A short description of data set [1]: PBS and FaSSIF solubility. The class given is physicochemical. The settings on record: kinetic from dmso stock. Summed up: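 Solubility was measured from 10 mM DMSO stocks diluted into FaSSIF or PBS pH 7.4, in duplicate, then shaken at 1100 rpm for 2 hr at 25 °C. Filtrates were quantified by LC-MS/MS against an internal standard and a known-concentration standard.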

Data set [2] is described as follows: Hepatocyte clearance assay, rat. Type of data set: in vitro ADME. The settings on record: cryopreserved primary rat hepatocytes, average value from two experiments, read-out: Rat heps Clint. The gist of the method: (§1)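 Cryopreserved rat or human hepatocytes, 0.5×10^6 viable cells/mL in L-15 medium, incubated with compound at 37 °C; samples to 120 min, duplicate. Parent loss by LC/MS/MS; t½ = 0.693/k from ln-linear regression, converted to CLint in μL/min/1×10^6 cells.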

Data set [3] can be described thus: Hepatocyte clearance assay, human. The class given is in vitro ADME. The note with it: cryopreserved primary human hepatocytes, average value from two experiments, read-out: Human heps Clint. Summed up: as §1
The next data set has as its system mPTP. As to the kind of experiment: mPTP activity (Ca2+ retention) assay in isolated rat liver mitochondria. Type of data set: biochemical. The note with it: isolated rat liver mitochondria. The gist of the method:
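Freshly isolated female Sprague Dawley rat liver mitochondria were energised with succinate and rotenone in pH 7.4 buffer with Fluo5N, then pre-incubated 10 min at RT with compound (30 μM to 1 nM final) before a 75 μM CaCl2 bolus. The IC50 used 10-min fluorescence, normalised to DMSO and 5 μM cyclosporin A.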

The mark [4] stands for this setting: aqueous buffer, PBS pH 7.4, 2 hr at 25° C., read-out: Solubility PBS (pH 7.4).
[5] abbreviates: fasted state simulated intestinal fluid (FaSSIF), fassif, Fasted state simulated intestinal fluid, 2 hr at 25° C., read-out: Solubility FaSSIF.
The mark [6] stands for this setting: average value from multiple experiments (n ≥ 2).

As to `Cc1c(F)cccc1NC(=O)/C=C/c1ccc2cn[nH]c2c1` [Comparative Example 1, (E)-N-(2-methyl-3-fluorophenyl)-3-(1H-indazol-6-yl)acrylamide, reference compound], the solubility at 2 h in data set [1] (setting [4]) is 0.9 µM (≈ 0.266 µg/mL); in data set [1] (setting [5]), 4 µM (≈ 1.18 µg/mL). The results for the hepatocyte CLint at 1 µM in data set [2] and in data set [3] were 89 µL/min/1e6 cells and 13 µL/min/1e6 cells, respectively. In addition, the “mPTP Rat liver pIC50” value with mPTP (average value from a larger number of experiments) is 7.8***; in the data set with mPTP (setting [6]), 8.0.

As for `Cc1c(F)cccc1NC(=O)/C=C/c1ccc2c(c1F)NC(=O)C2` [Example 5, (E)-N-(3-fluoro-2-methylphenyl)-3-(7-fluoro-2-oxoindolin-6-yl)acrylamide], the solubility at 2 h in data set [1] (setting [4]) was 6.78 µM (≈ 2.23 µg/mL); in data set [1] (setting [5]), 66 µM (≈ 21.7 µg/mL). Besides, the hepatocyte CLint at 1 µM in data set [2] was 27 µL/min/1e6 cells. In addition, in the data set with mPTP (setting [6]), the “mPTP Rat liver pIC50” value was determined as 6.7.

Consider `Cc1c(F)cccc1NC(=O)/C=C/c1ccc2oc(=O)[nH]c2c1` [Example 6, (E)-N-(3-fluoro-2-methylphenyl)-3-(2-oxo-2,3-dihydrobenzo[d]oxazol-5-yl)acrylamide], for which the solubility at 2 h was 3.71 µM (≈ 1.16 µg/mL) in data set [1] (setting [4]) and 16 µM (≈ 5 µg/mL) in data set [1] (setting [5]). Besides, the results for the hepatocyte CLint at 1 µM in data set [2] and in data set [3] were 53.3 µL/min/1e6 cells and < 3 µL/min/1e6 cells, respectively. The “mPTP Rat liver pIC50” value in the data set on mPTP (setting [6]) is recorded as 6.8.

Consider `Cc1c(F)cccc1NC(=O)/C=C/c1ccc2c(c1)[nH]c(=O)n2C` [Example 7, (E)-N-(3-fluoro-2-methylphenyl)-3-(1-methyl-2-oxo-2,3-dihydro-1H-benzo[d]imidazol-5-yl)acrylamide], for which the values for the solubility at 2 h in data set [1] (setting [4]) and in data set [1] (setting [5]) were 1.4 µM (≈ 0.455 µg/mL) and 22.5 µM (≈ 7.32 µg/mL), respectively. For the same compound, the figures for the hepatocyte CLint at 1 µM in data set [2] and in data set [3] were 27 µL/min/1e6 cells and 7.63 µL/min/1e6 cells, respectively. The “mPTP Rat liver pIC50” value in the data set with mPTP (setting [6]) came out at 6.8.

Take `Cc1c(F)cccc1NC(=O)/C=C/c1ccc2c(c1)NC(=O)C2C` (centres unmarked) [Example 8, (E)-N-(3-fluoro-2-methylphenyl)-3-(3-methyl-2-oxoindolin-6-yl)acrylamide]: the solubility at 2 h in data set [1] (setting [4]) was 33.6 µM (≈ 10.9 µg/mL); in data set [1] (setting [5]), 220 µM (≈ 71.3 µg/mL). Also, the hepatocyte CLint at 1 µM in data set [2] is 46 µL/min/1e6 cells. Moreover, the “mPTP Rat liver pIC50” value in the data set with mPTP (setting [6]) was determined as 5.9.

With `Cc1c(F)cccc1NC(=O)/C=C/c1ccc2c(c1)NC(=O)C2` [Example 10, (E)-N-(3-fluoro-2-methylphenyl)-3-(2-oxoindolin-6-yl)acrylamide], the solubility at 2 h in data set [1] (setting [4]) is 4.7 µM (≈ 1.46 µg/mL); in data set [1] (setting [5]), 74 µM (≈ 23 µg/mL). In addition, the hepatocyte CLint at 1 µM in data set [2] turned out to be 21.1 µL/min/1e6 cells; in data set [3], 3.3 µL/min/1e6 cells. Besides, the “mPTP Rat liver pIC50” value in the data set with mPTP (setting [6]) is 6.7.

`Cc1cccc(C)c1NC(=O)/C=C/c1ccc2c(c1)NC(=O)C2` [Example 19, (E)-N-(2,6-dimethylphenyl)-3-(2-oxoindolin-6-yl)acrylamide]: the solubility at 2 h in data set [1] (setting [4]) is 134 µM (≈ 41.1 µg/mL); in data set [1] (setting [5]) it was 196 µM (≈ 60.2 µg/mL). The hepatocyte CLint at 1 µM in data set [2] turned out to be 9.1 µL/min/1e6 cells; in data set [3] it was 4.02 µL/min/1e6 cells. Moreover, in the data set on mPTP (setting [6]), the “mPTP Rat liver pIC50” value is reported as 6.2.

For `CCn1c(=O)[nH]c2cc(/C=C/C(=O)Nc3cccc(F)c3C)ccc21` [Example 22, (E)-3-(1-ethyl-2-oxo-2,3-dihydro-1H-benzo[d]imidazol-5-yl)-N-(3-fluoro-2-methylphenyl)acrylamide], in data set [1] (setting [4]), the solubility at 2 h came to 0.4 µM (≈ 0.136 µg/mL). Moreover, the hepatocyte CLint at 1 µM in data set [2] worked out at 26.1 µL/min/1e6 cells; in data set [3], 16.2 µL/min/1e6 cells. Besides, in the data set on mPTP (setting [6]), the “mPTP Rat liver pIC50” value is reported as 6.6.

Turning to `Cc1c(F)cccc1NC(=O)/C=C/c1ccc2c(c1)[nH]c(=O)n2C1CC1` [Example 23, (E)-3-(1-cyclopropyl-2-oxo-2,3-dihydro-1H-benzo[d]imidazol-5-yl)-N-(3-fluoro-2-methylphenyl)acrylamide], in data set [1] (setting [4]), the solubility at 2 h amounted to 6.13 µM (≈ 2.15 µg/mL). Besides, the hepatocyte CLint at 1 µM in data set [2] came to 35.7 µL/min/1e6 cells; in data set [3], 17.4 µL/min/1e6 cells. Also, the “mPTP Rat liver pIC50” value in the data set with mPTP (setting [6]) was found to be 6.6.

Consider `Cc1n[nH]c2cc(/C=C/C(=O)NC3CCc4ccccc43)ccc12` (centres unmarked) [Example 25, (E)-N-(2,3-dihydro-1H-inden-1-yl)-3-(3-methyl-1H-indazol-6-yl)acrylamide], for which the solubility at 2 h in data set [1] (setting [4]) was found to be 3.69 µM (≈ 1.17 µg/mL). Also, the hepatocyte CLint at 1 µM in data set [2] amounted to 36.3 µL/min/1e6 cells; in data set [3], 21.8 µL/min/1e6 cells. Also, the “mPTP Rat liver pIC50” value in the data set on mPTP (setting [6]) is 6.9.

`Cc1ccc(F)c(C)c1NC(=O)/C=C/c1ccc2c(c1)[nH]c(=O)n2C` [Example 30, (E)-N-(3-fluoro-2,6-dimethylphenyl)-3-(1-methyl-2-oxo-2,3-dihydro-1H-benzo[d]imidazol-5-yl)acrylamide]: the values for the solubility at 2 h in data set [1] (setting [4]) and in data set [1] (setting [5]) were 5.73 µM (≈ 1.94 µg/mL) and 135 µM (≈ 46 µg/mL), respectively. For the same compound, the results for the hepatocyte CLint at 1 µM in data set [2] and in data set [3] were 12.1 µL/min/1e6 cells and 18.1 µL/min/1e6 cells, respectively. Besides, the “mPTP Rat liver pIC50” value in the data set with mPTP (setting [6]) was found to be 7.4.

Take `Cc1c(F)cccc1NC(=O)/C(F)=C/c1ccc2c(c1)NC(=O)C2` [Example 47, (Z)-2-fluoro-N-(3-fluoro-2-methylphenyl)-3-(2-oxoindolin-6-yl)acrylamide]: the solubility at 2 h in data set [1] (setting [4]) was 0.5 µM (≈ 0.164 µg/mL). For the same compound, the hepatocyte CLint at 1 µM in data set [3] came out at 4.78 µL/min/1e6 cells. The “mPTP Rat liver pIC50” value in the data set on mPTP (setting [6]) is given as 5.9.

Turning to `CO[C@H]1Cc2ccccc2[C@@H]1NC(=O)/C=C/c1ccc2c(C)n[nH]c2c1` [Example 54, (E)-N-((1S,2S)-2-methoxy-2,3-dihydro-1H-inden-1-yl)-3-(3-methyl-1H-indazol-6-yl)acrylamide], the solubility at 2 h in data set [1] (setting [5]) is 22 µM (≈ 7.63 µg/mL). Further, the hepatocyte CLint at 1 µM amounted to 39.4 µL/min/1e6 cells in data set [2] and 10.8 µL/min/1e6 cells in data set [3]. Further, the “mPTP Rat liver pIC50” value in the data set on mPTP (setting [6]) is reported as 7.6.

Regarding `CO[C@H]1Cc2ccccc2[C@@H]1NC(=O)/C=C/c1ccc2c(F)n[nH]c2c1` [Example 73, (E)-3-(3-fluoro-1H-indazol-6-yl)-N-((1S,2S)-2-methoxy-2,3-dihydro-1H-Inden-1-yl)acrylamide], in data set [1] (setting [5]), the solubility at 2 h is 37.5 µM (≈ 13.2 µg/mL). The hepatocyte CLint at 1 µM was determined as 73.5 µL/min/1e6 cells in data set [2] and 7.7 µL/min/1e6 cells in data set [3]. Moreover, the “mPTP Rat liver pIC50” value in the data set with mPTP (setting [6]) is listed as 8.1.
